Reference: ChEMBL document CHEMBL1201862, “PubChem BioAssay data set” (2004)
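Method: 48-hour compound exposure of cells in 96-well plates, five concentrations, linear interpolation of endpoints. GI50: concentration for 50% inhibition of growth.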 Calls of active or inactive are those of the source. Cut-off read from the data, not from the text of the source: active = GI50 up to about 1.1 µM and inactive = higher.

What was measured:
Assay in all cases: NCI anticancer screen, dose series, 48 h
ACHN = tested on: ACHN
CCRF-CEM = tested on: CCRF-CEM
EKVX = tested on: EKVX
HL-60 = tested on: HL-60
Hs-578T = tested on: Hs-578T
K562 = tested on: K562
LOX IMVI = tested on: LOX IMVI
MOLT-4 = tested on: MOLT-4
NCI-H23 = tested on: NCI-H23
NCI-H460 = tested on: NCI-H460
NCI-H522 = tested on: NCI-H522
NCI/ADR-RES = tested on: NCI/ADR-RES
OVCAR-3 = tested on: OVCAR-3
SF-268 = tested on: SF-268
SK-MEL-28 = tested on: SK-MEL-28
SK-MEL-5 = tested on: SK-MEL-5
SN12C = tested on: SN12C
MCF7 = tested on: MCF7
SF-539 = tested on: SF-539

Measured: GI50

Cc1ccc(S(=O)(=O)OCC(=O)O)cc1
inactive: ACHN > 100 µM | CCRF-CEM > 100 µM | EKVX > 100 µM | HL-60 > 100 µM | Hs-578T > 100 µM | K562 > 100 µM | LOX IMVI > 100 µM | MOLT-4 > 100 µM | NCI-H23 > 100 µM | NCI-H460 > 100 µM | NCI-H522 > 100 µM | NCI/ADR-RES > 100 µM | OVCAR-3 > 100 µM | SF-268 > 100 µM | SK-MEL-28 > 100 µM | SK-MEL-5 > 100 µM | SN12C > 100 µM

O=c1s[s+]([O-])c2ccccc12 (stereo not given)
inactive: ACHN > 100 µM | CCRF-CEM 61.4 µM | EKVX > 100 µM | HL-60 46.9 µM | K562 45.7 µM | LOX IMVI 58.3 µM | MCF7 > 100 µM | MOLT-4 > 100 µM | NCI-H23 > 100 µM | NCI-H460 46.8 µM | NCI-H522 39.4 µM | NCI/ADR-RES > 100 µM | OVCAR-3 > 100 µM | SF-539 > 100 µM | SK-MEL-28 > 100 µM | SK-MEL-5 > 100 µM | SN12C > 100 µM

CCC1OC(=O)CC(O)C(C)C(OC2OC(C)C(O)C(N(C)C)C2O)C(CC=O)CC(C)C(=O)/C=C/C2(C)OC2C1C (stereo not given)
inactive: ACHN 25.8 µM | CCRF-CEM 17.2 µM | EKVX 40.1 µM | HL-60 23.6 µM | Hs-578T 27.1 µM | K562 12 µM | LOX IMVI 16.8 µM | MCF7 21.5 µM | MOLT-4 14.1 µM | NCI-H23 26.4 µM | NCI-H460 32.4 µM | NCI-H522 18.5 µM | OVCAR-3 23.3 µM | SF-268 24.9 µM | SF-539 25.2 µM | SK-MEL-28 54.6 µM | SK-MEL-5 7.03 µM | SN12C 15.1 µM

CCCCCCCCCCCCN1[C@H]2CCC[C@H]2C(O)[C@@H]2CCC[C@@H]21 (stereo not given in full)
inactive: ACHN > 100 µM | CCRF-CEM > 100 µM | HL-60 33.8 µM | Hs-578T > 100 µM | K562 > 100 µM | LOX IMVI 81.8 µM | MOLT-4 > 100 µM | NCI-H23 42.6 µM | NCI-H460 > 100 µM | NCI/ADR-RES > 100 µM | OVCAR-3 > 100 µM | SF-268 > 100 µM | SK-MEL-28 > 100 µM | SK-MEL-5 58.2 µM | SN12C 52.8 µM

COC(=O)c1c[nH]c2nc(N3CCOCC3)nn2c1=O
inactive: ACHN > 100 µM | CCRF-CEM > 100 µM | EKVX > 100 µM | HL-60 > 100 µM | K562 > 100 µM | LOX IMVI > 100 µM | MOLT-4 > 100 µM | NCI-H23 > 100 µM | NCI-H460 > 100 µM | NCI-H522 > 100 µM | OVCAR-3 > 100 µM | SF-268 > 100 µM | SF-539 > 100 µM | SK-MEL-28 > 100 µM | SK-MEL-5 > 100 µM | SN12C > 100 µM

CC(NC(=O)C(OC(=O)C(C)NC(=O)OC(C)(C)C)C(C)C)C(=O)OC(C(=O)O)C(C)C (stereo not given)
inactive: ACHN > 100 µM | EKVX > 100 µM | Hs-578T > 100 µM | K562 > 100 µM | MOLT-4 > 100 µM | NCI-H460 > 100 µM | NCI-H522 > 100 µM | NCI/ADR-RES > 100 µM | OVCAR-3 > 100 µM | SF-268 > 100 µM | SF-539 > 100 µM | SK-MEL-28 > 100 µM | SK-MEL-5 > 100 µM | SN12C > 100 µM

CC1(C)C(=O)C=CC2(C)C1CC(O)C1(C)C2CCC2(C)C(c3ccoc3)OC(=O)C3OC321 (stereo not given)
inactive: ACHN 14.1 µM | CCRF-CEM 23.1 µM | EKVX 12.5 µM | K562 24.8 µM | LOX IMVI 15.7 µM | MCF7 28.8 µM | MOLT-4 5.87 µM | NCI-H23 12.1 µM | NCI-H460 13.6 µM | NCI-H522 11.5 µM | NCI/ADR-RES 14.4 µM | OVCAR-3 13.9 µM | SF-539 > 10 µM | SK-MEL-28 24.8 µM | SK-MEL-5 6.43 µM | SN12C 18.7 µM

CC1(C)OC[C@@H]([C@H](O)C2C=CC(=O)S2)O1 (stereo not given in full)
inactive: ACHN 19.2 µM | CCRF-CEM 24.1 µM | EKVX 31 µM | HL-60 8.73 µM | K562 25.4 µM | LOX IMVI 15.7 µM | MCF7 30.2 µM | MOLT-4 32 µM | NCI-H23 26.4 µM | NCI-H460 28.2 µM | NCI/ADR-RES 21.5 µM | OVCAR-3 50.5 µM | SF-268 15.5 µM | SF-539 27.4 µM | SK-MEL-5 18.7 µM | SN12C 27.9 µM

C[C@@H]1CC(=O)C[C@@H]2CC[C@H]3[C@@H]4CC[C@H](OC(=O)c5cccc6cc7ccccc7nc56)[C@H]4CC[C@@H]3[C@H]21
inactive: ACHN 15.7 µM | EKVX 16.7 µM | Hs-578T 21.6 µM | K562 8 µM | LOX IMVI 15.6 µM | MOLT-4 3.48 µM | NCI-H23 14.7 µM | NCI-H460 14.1 µM | NCI-H522 5.6 µM | NCI/ADR-RES 20.9 µM | OVCAR-3 15.2 µM | SF-268 6.4 µM | SF-539 16.7 µM | SK-MEL-28 28.6 µM | SK-MEL-5 13.2 µM | SN12C 16.6 µM

Cc1c(NC(=S)N/N=C\C(=N/NC(=S)Nc2c(C)n(C)n(-c3ccccc3)c2=O)c2ccccc2)c(=O)n(-c2ccccc2)n1C
inactive: ACHN > 100 µM | EKVX > 100 µM | Hs-578T > 100 µM | MOLT-4 > 100 µM | NCI-H23 > 100 µM | NCI-H460 > 100 µM | NCI/ADR-RES > 100 µM | OVCAR-3 > 100 µM | SF-268 > 100 µM | SF-539 > 100 µM | SK-MEL-5 > 100 µM

Oc1c(C2=NNC(c3ccc(Cl)cc3Cl)C2)ccc2ccccc12 (stereo not given)
inactive: ACHN 38.5 µM | CCRF-CEM 5.26 µM | Hs-578T 35.6 µM | K562 23.1 µM | MCF7 30.2 µM | MOLT-4 5.7 µM | NCI-H23 68.1 µM | NCI-H460 30.1 µM | NCI-H522 24 µM | NCI/ADR-RES 22 µM | OVCAR-3 20.1 µM | SF-268 33 µM | SF-539 30.5 µM | SK-MEL-28 45.7 µM | SK-MEL-5 52 µM | SN12C 32.6 µM

CNC(=S)NNc1ncnc2c1ncn2-c1ccc(C)cc1
inactive: CCRF-CEM > 100 µM | EKVX > 100 µM | HL-60 > 100 µM | Hs-578T > 100 µM | K562 > 100 µM | LOX IMVI > 100 µM | MOLT-4 > 100 µM | NCI-H23 > 100 µM | NCI-H460 > 100 µM | NCI-H522 > 100 µM | NCI/ADR-RES > 100 µM | OVCAR-3 > 100 µM | SF-268 > 100 µM | SF-539 > 100 µM | SK-MEL-28 > 100 µM | SK-MEL-5 > 100 µM | SN12C > 100 µM

O=C(c1cccc2ccccc12)C1S(=O)(=O)OCCOS1(=O)=O
inactive: ACHN > 100 µM | CCRF-CEM > 100 µM | EKVX > 100 µM | HL-60 > 100 µM | K562 > 100 µM | MCF7 > 100 µM | MOLT-4 > 100 µM | NCI-H23 > 100 µM | NCI-H460 > 100 µM | NCI/ADR-RES > 100 µM | OVCAR-3 > 100 µM | SK-MEL-28 > 100 µM | SK-MEL-5 > 100 µM | SN12C > 100 µM

O=c1[nH]nc(Cc2ccc(Cl)cc2)n1/N=C/c1cccs1
inactive: ACHN 75.7 µM | CCRF-CEM > 100 µM | EKVX 23 µM | HL-60 > 100 µM | K562 > 100 µM | MCF7 44.3 µM | MOLT-4 > 100 µM | NCI-H23 24.9 µM | NCI-H460 > 100 µM | NCI-H522 23.7 µM | NCI/ADR-RES 50.5 µM | OVCAR-3 > 100 µM | SF-268 15.9 µM | SF-539 41.3 µM | SK-MEL-28 > 100 µM | SN12C 29.2 µM

COc1nc(C(=O)NNC(=O)c2nc(OC)c3ccccc3c2-c2ccccc2)c(-c2ccccc2)c2ccccc12
inactive: ACHN > 100 µM | CCRF-CEM > 100 µM | EKVX > 100 µM | HL-60 > 100 µM | Hs-578T > 100 µM | K562 > 100 µM | MCF7 > 100 µM | MOLT-4 > 100 µM | NCI-H23 > 100 µM | NCI-H522 > 100 µM | NCI/ADR-RES > 100 µM | OVCAR-3 > 100 µM | SF-268 > 100 µM | SK-MEL-28 > 100 µM | SK-MEL-5 > 100 µM | SN12C > 100 µM

N#C/C(=C\c1cc(Br)c(O)c(Br)c1)c1ccccn1
inactive: ACHN 90.6 µM | CCRF-CEM 34.1 µM | EKVX 26.7 µM | HL-60 > 100 µM | K562 34.6 µM | MCF7 89.3 µM | MOLT-4 32.5 µM | NCI-H23 44 µM | NCI-H460 48.6 µM | NCI-H522 64.9 µM | NCI/ADR-RES 43 µM | OVCAR-3 49.3 µM | SF-268 93.8 µM | SF-539 84.7 µM | SK-MEL-28 82 µM | SK-MEL-5 41 µM | SN12C 46.7 µM

Nc1ccc(S(=O)(=O)Nc2nccs2)cc1 [SULFATHIAZOLE]
inactive: ACHN > 100 µM | CCRF-CEM > 100 µM | EKVX > 100 µM | HL-60 > 100 µM | K562 > 100 µM | LOX IMVI > 100 µM | MCF7 > 100 µM | MOLT-4 > 100 µM | NCI-H23 > 100 µM | NCI-H460 > 100 µM | NCI-H522 > 100 µM | NCI/ADR-RES > 100 µM | OVCAR-3 > 100 µM | SF-268 > 100 µM | SF-539 > 100 µM | SK-MEL-28 > 100 µM | SK-MEL-5 > 100 µM | SN12C > 100 µM
